Reference: ChEMBL document CHEMBL1201862, “PubChem BioAssay data set” (2004)
The source made the active and inactive calls. No stated cut-off is given here; in the data, actives have a measured IC50 and inactives only a lower limit.

Assays:
Bcl-2-related protein A1 = molecular target: T1, Bcl-2-related protein A1 (Mus musculus, UniProt Q07440); format: functional;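 further: confirmatory dose–response counterscreen on Bfl-1, used to check hits from a UBC13 polyubiquitin inhibitor campaign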
T1 sequence (Q07440 whole entry): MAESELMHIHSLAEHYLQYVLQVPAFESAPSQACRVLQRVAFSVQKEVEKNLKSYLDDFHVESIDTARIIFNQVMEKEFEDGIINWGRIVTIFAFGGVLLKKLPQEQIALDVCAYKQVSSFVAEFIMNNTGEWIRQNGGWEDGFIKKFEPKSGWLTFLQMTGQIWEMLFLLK

[1] = molecular target: T2, Apoptotic protease-activating factor 1 (Homo sapiens, UniProt O14727); format: functional
T2 sequence (O14727 whole entry): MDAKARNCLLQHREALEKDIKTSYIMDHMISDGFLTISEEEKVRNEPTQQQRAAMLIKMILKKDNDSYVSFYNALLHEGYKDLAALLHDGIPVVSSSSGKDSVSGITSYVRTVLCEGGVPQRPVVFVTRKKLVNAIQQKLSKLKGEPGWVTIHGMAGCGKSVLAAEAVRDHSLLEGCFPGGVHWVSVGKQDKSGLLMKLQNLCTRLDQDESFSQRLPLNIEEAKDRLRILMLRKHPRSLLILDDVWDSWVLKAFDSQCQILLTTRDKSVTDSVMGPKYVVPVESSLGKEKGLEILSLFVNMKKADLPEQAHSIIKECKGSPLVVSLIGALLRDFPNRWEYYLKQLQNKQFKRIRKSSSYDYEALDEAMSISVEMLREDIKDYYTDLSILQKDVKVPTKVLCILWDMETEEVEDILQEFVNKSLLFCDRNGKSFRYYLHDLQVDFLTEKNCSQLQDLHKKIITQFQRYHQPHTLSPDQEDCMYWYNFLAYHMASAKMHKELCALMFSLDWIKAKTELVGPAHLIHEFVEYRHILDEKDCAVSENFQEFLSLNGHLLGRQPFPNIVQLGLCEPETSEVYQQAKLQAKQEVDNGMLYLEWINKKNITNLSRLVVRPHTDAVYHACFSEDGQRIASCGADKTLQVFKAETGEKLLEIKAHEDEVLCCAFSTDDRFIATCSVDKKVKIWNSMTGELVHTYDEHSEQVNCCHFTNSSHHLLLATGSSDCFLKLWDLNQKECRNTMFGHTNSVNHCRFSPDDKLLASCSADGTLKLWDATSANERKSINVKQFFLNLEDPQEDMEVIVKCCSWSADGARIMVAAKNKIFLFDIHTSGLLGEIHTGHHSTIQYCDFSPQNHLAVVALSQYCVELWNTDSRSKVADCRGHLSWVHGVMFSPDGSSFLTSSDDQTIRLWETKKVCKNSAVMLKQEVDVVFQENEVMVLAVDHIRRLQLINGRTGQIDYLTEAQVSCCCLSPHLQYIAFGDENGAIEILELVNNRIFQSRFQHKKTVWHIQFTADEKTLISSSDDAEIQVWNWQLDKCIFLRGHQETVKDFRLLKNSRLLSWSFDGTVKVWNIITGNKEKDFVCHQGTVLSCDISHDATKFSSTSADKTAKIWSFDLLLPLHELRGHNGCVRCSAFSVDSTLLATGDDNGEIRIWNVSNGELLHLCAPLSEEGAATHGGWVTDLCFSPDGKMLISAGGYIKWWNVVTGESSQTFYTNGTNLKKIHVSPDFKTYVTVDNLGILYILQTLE

In the case of `Clc1ccc(C(c2ccc(Cl)cc2)n2cc[n+](CC(OCc3ccc(Cl)cc3Cl)c3ccc(Cl)cc3Cl)c2)cc1` (configuration not stated) [CALMIDAZOLIUM CHLORIDE], the IC50 (Bcl-2-related protein A1) is reported as 6.23 µM (active) and the IC50 [1] is reported as 12.7 µM (active).
